Test results published in paper PMC5454592, “Pharmacological and Toxicological Properties of the Potent Oral γ-Secretase Modulator BPN-15606” (The Journal of Pharmacology and Experimental Therapeutics, 2017).

Key:
Aβ42 and Aβ40 levels [1] = assay: Acute single-dose pharmacodynamics in mice; assay type: in vivo, C57BL/6J mice; conditions: single oral dose 25 mg/kg, C57BL/6 mice
Method: Male C57BL/6J mice (n = 5 per group) were administered a single dose of either vehicle (80% polyethylene glycol 400 v/v; 20% sterile water v/v and 0.1% Tween 20 v/v) or BPN-15606 (25 mg/kg) by po and sacrificed at 0.5, 1, 2, 4, 8, 12, and 24 hours following the dosing. Plasma and brain extracts were prepared, and Aβ peptides were quantitated as described previously ([Kounnas et al., 2010]). Statistical analysis was performed as described above for the repeat dosing studies.

PK in rat (i.v./po) = assay type: in vivo; conditions: male, plasma, Sprague–Dawley rats, 5 mg/kg po vs 1 mg/kg i.v.
Method: Male CD-1 mice and male Sprague–Dawley rats were administered a single dose of BPN-15606 by i.v. or oral gavage (po) dose routes to assess oral bioavailability. Mice and rats received BPN-15606 as a single i.v. dose at 1 mg/kg (n = 5) or a single po dose at 5 mg/kg (n = 5). Blood was collected from mice and rats at 5 (i.v. only), 15, and 30 minutes, and 1, 2, 4, 8, and 12 hours postdose for processing to plasma. For mice, brains were collected from both dose groups (i.v. and po) at 1, 4, 8, and 12 hours postdose. For rats, brains were collected from those same animals at the 12-hour time point only. […]
Data were subjected to noncompartmental analysis using WinNonlin Phoenix Model 200 (for extravascular administration) or Model 201 (for i.v. bolus administration) and the sparse sampling feature; a uniform weighting factor was applied to each data set. Time to maximum plasma concentration (Tmax) and maximum plasma concentration (Cmax) values were determined directly from the data. Area under the plasma concentration–time curve to the last time point (AUClast) values were calculated using the log/linear trapezoidal (i.v. dose) or linear up/log down trapezoidal (po dose). Values were calculated using the plasma data from composite groups. […] The volume of distribution at steady state and clearance were calculated using the i.v. group data. […]

[2] = Metabolite identification in cryopreserved hepatocytes; assay type: in vitro ADME, mouse, rat, dog, monkey, human; conditions: hepatocyte cultures from five species
Method: Test compound (1 μM) was incubated at 37°C for 4 hours with cryopreserved mouse, rat, dog, monkey, or human hepatocytes. Identification of metabolites’ molecular weights and relative abundance of the specific metabolites was based on high performance liquid chromatography (HPLC)/MS/MS peak areas, and structural characterization of metabolites was accomplished by LC/MS/MS/Q-Trap.

[3] = system: Notch proteolysis by γ-secretase; assay: Notch assay (Myc-tagged Notch NΔE in H4-APP751 neuroglioma cells); assay type: cell-based
Method: Notch assays were carried out as described previously ([Wagner et al., 2014]).

Aβ42 and Aβ40 levels [4] = assay: Repeat-dose (7-day) efficacy study in mice; assay type: in vivo, C57BL/6J mice
Method: Male C57BL/6J mice (n = 10/dose level) and male Sprague–Dawley rats (n = 14/dose level) were administered either vehicle (80% polyethylene glycol 400 v/v; 20% sterile water v/v and 0.1% Tween 20 v/v) or BPN-15606 (10, 25, and 50 mg/kg) once daily po for 7 consecutive days (mice) or 5, 25, and 50 mg/kg once daily po for 9 consecutive days (rats). […] Animals were sacrificed 4 hours following the dosing on day 7 of the 7-day oral treatment course (mice) and on day 9 of the 9-day oral treatment course (rats). Plasma and brain extracts were prepared (mice and rats); CSF was aspirated from the cisterna magnum with minimal to no blood contamination (rats only); and tissues were frozen at −70°C. Aβ peptides were quantitated in brain extracts and plasma (mice) or CSF and plasma (rats), as described previously, using Meso Scale multiplex kits and the Meso Scale Sector Imager 6000 ([Kounnas et al., 2010]). Statistical analysis was performed using GraphPad Prism software, and results are expressed as mean ± S.E.M. Analysis of variance was used to detect a significant effect. Drug levels of BPN-15606 were measured in plasma and brain extracts using the bioanalytical methods detailed above.

Aβ neuritic plaques = assay: Chronic repeat-dose efficacy in PSAPP transgenic mice (Thioflavin S plaque load); assay type: in vivo
Method: Thirty-five female double-transgenic mice, model presenilin amyloid precursor protein ([Jankowsky et al., 2004]), purchased from The Jackson Laboratory (Bar Harbor, ME) [B6.C3-Tg (APPswe, PSEN1dE9) 85Dbo/Mmjax, stock no. 0034829] and then bred in-house, were used in the study at 90 days of age. The mice were housed in a temperature-controlled room at a constant 22°C in a 12:12-hour light/dark cycle (lights off at 18:00), with food and water available ad libitum. Age-matched mice were housed by treatment group in groups of two to four per cage. All experimental procedures were reviewed and approved by Institutional Animal Care and Use Committee at University of California, San Diego. Subjects were randomly assigned to either the drug group (BPN-15606) or vehicle, with individual groups ranging from 9 to 10 mice. Mice were treated for 6 months with BPN-15606 at a dose of 10 mg/kg/d. For the drug administration, BPN-15606 was milled into standard rodent chow, processed by Research Diets (New Brunswick, NJ). All animals were weighed three times weekly to assess any adverse effects on normal weight gain during the 6-month treatment period. Food consumption was determined by weighing the metal cage, including the chow, to the nearest 0.1 g.
To determine Aβ fibril plaque load, floating coronal sections from AD and wild-type mice, n = 4 for each group, were washed in miliQ water and mounted on Fisherbrand Superfrost Plus microscope slides, before being processed for 1% (w/v) Thioflavin S staining. All images were taken with Leica (Mannheim, Germany) fluorescence microscope at 5× and with the same exposure across all images. The percent plaque within specified areas of a series of hippocampal and frontal cortex sections was quantified using ImageJ software from National Institutes of Health. Images were converted to 8-bit grayscale, and area of interest was traced and determined. Brightness and B/W threshold were adjusted appropriately and consistently across all images. The area of plaque particles within the area of interest was obtained, and the percent plaque was calculated. […]

[5] = 10 mg/kg/d in chow for 6 months

COc1nc(-c2cc(C)c(N[C@@H](C)c3ccc(F)cc3)nn2)ccc1-n1cnc(C)c1 [BPN-15606, (S)-N-(1-(4-fluorophenyl)ethyl)-6-(6-methoxy-5-(4-methyl-1H-imidazol-1-yl)pyridin-2-yl)-4-methylpyridazin-3-amine]
duration of effect on brain and plasma Aβ42 and Aβ40 levels (Aβ42 and Aβ40 levels [1]): ≥ 24 h
onset of effect on brain and plasma Aβ42 and Aβ40 levels (Aβ42 and Aβ40 levels [1]): 30 to 60 min
bioavailability (PK in rat (i.v./po)): > 60%
uniquely human metabolites [2]: absence of any unique human metabolites
uniquely human metabolites ([2]; listed as BPN-15605): no uniquely human metabolites identified
Notch proteolysis ([3]; H4-APP751 neuroglioma cells transfected with Myc-tagged Notch (NΔE) construct, Fig. 3): does not inhibit Notch proteolysis
Notch cleavage ([3]; doses as high as 25 μM): does not affect Notch cleavage
lowering of brain Aβ42 levels (Aβ42 and Aβ40 levels [4]; mice, 10 mg/kg): ~40%
lowering of brain Aβ42 levels (Aβ42 and Aβ40 levels [4]; mice, 25 mg/kg): 70–75%
lowering of plasma Aβ42 (Aβ42 and Aβ40 levels [4]; mice, 25 mg/kg): > 90%
clinical observations (Aβ42 and Aβ40 levels [4]; mice, 10, 25, 50 mg/kg po daily for 7 days): all animals appeared normal throughout the study
necropsy findings at end of study (Aβ neuritic plaques; 10 mg/kg/d for 6 months): no significant adverse findings
accumulation of Aβ neuritic plaques in cortex (Thioflavin S, densitometry) (Aβ neuritic plaques; [5]): significantly reduced accumulation of Aβ neuritic plaques
accumulation of Aβ neuritic plaques in hippocampus (Thioflavin S, densitometry) (Aβ neuritic plaques; [5]): significantly reduced accumulation of Aβ neuritic plaques
